Here are results for one molecule from patent US5284852A, “Angiotensin II receptor blocking 2,3,6-substituted quinazolinones” (American Cyanamid Company, priority 1993, dated 1994).

The target in the assay is T1, Angiotensin II Receptor (Bos taurus, UniProt P25104).
T1 construct: The brownish tissue forming the adrenal cortex is scraped off and finely minced with scissors before homogenization; tissue Maxwell-Cohen (local slaughter house); host or cells: beef adrenal cortex, microsomal membranes (100,000×g pellet)
T1 sequence (P25104 1-359): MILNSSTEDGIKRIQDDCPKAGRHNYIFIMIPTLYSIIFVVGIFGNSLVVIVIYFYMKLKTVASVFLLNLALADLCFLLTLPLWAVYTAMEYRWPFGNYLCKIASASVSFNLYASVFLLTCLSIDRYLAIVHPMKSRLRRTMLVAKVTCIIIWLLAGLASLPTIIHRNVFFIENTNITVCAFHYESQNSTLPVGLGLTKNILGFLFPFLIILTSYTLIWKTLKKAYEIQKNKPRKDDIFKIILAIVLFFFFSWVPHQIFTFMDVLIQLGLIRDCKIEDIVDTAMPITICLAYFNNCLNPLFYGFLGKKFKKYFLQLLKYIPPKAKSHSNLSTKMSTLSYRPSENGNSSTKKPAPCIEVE
The assay is described as follows: Receptor binding assay: displacement of [125I](Sar1,Ile8)AngII from beef adrenal cortex microsomal membranes. An excerpt:
Beef adrenals are obtained from a local slaughter house (Maxwell-Cohen). [^125 I](Sar^1,-Ile^8)AngII, S.A. 2200 Ci/mmole, is purchased from Dupont (NEN®, Boston, Mass.). All unlabeled AngII analogs, dimethylsulfoxide (DMSO), nucleotides, bovine serum albumin (BSA) are purchased from Sigma Chemical Co., St. Louis, Mo. U.S.A.
Approximately sixteen (16) to twenty (20) beef adrenal glands are processed as follows: fresh adrenal glands received on crushed ice are cleaned of fatty tissues and the tough membranes encapsulating the glands are removed and discarded. The brownish tissue forming the adrenal cortex is scraped off and finely minced with scissors before homogenization. Care is taken to avoid contamination with medullary tissue during dissection. The scraped cortices are suspended in twenty volumes of an ice-cold buffer medium consisting of 10 mM Tris.HCl (pH 7.4 at 22° C.) and containing 1.0 mM EDTA and 0.2M sucrose. Unless otherwise indicated, all subsequent operation are done at 4° C. […] The homogenate is centrifuged first at low speed (3,000×g) for 10 min. […] A 100 ul aliquot is withdrawn and the protein content of the preparation is determined by the Lowry's method (Lowry, O. H., Rosebrough, N. F., Farr, A. L. and Randall, R. J., Protein measurement with Folin phenol reagent. J. Biol. Chem., […], 265-275, 1951). […]
(In general: Loss of bound radioactivity is the signal in a displacement assay; it reports binding, not function.)

pIC50: −log10 of the molar value.

One may read the pIC50 as the IC50 on a negative log10 scale, so that one unit is a factor of ten. Read a low pIC50 as a high IC50.

As to `CCCCc1nc2ccc(COc3ccccc3)cc2c(=O)n1Cc1ccc(-c2ccccc2-c2nnn[nH]2)cc1` [Example 36, 2-Butyl-6-(phenoxymethyl)-3-[[2'-(1H-tetrazol-5-yl) [1,1'-biphenyl]-4-yl]methyl]-4(3H)-quinazolinone], the pIC50 was 6.89.
